Results as given in ChEMBL document CHEMBL3507680, “University of Dundee, Gates Library screen for HepG2 cell viability”.

Assay: Human HepG2 cell viability assay in 384 well format
Type: toxicity, cell-based
Set-up: dose 125 nL, time 70.5 hour; concentration not given beside the values
Conditions: HepG2 cells, read-out: Inhibition

Structure (SMILES)	cytotoxicity at 70.5 h
Cc1cccc(CNC(=O)C2CCC(=O)N(Cc3ccccc3F)C2)n1 (centres undefined)	-9.23%
COc1ccc(C(C(=O)O)N(C)CCN2CCCC2)cc1F (centres undefined)	-9.88%
CCn1nc(CC(C)C)cc1C(=O)N1CCN([C@H]2CCCC[C@@H]2O)CC1	-2.99%
COc1cc(CN2CCCC(Nc3cccc(F)c3)C2)cc(Cl)c1O (centres undefined)	6.37%
Cc1cc(C)c2[nH]c(C(=O)NCCN3CCOC3=O)c(C)c2c1	1.29%
CN(CCO)C[C@@H]1CN(C(=O)c2cccc(OC(F)F)c2)C[C@@H]1CO	-5.3%
COCC(Nc1nc(N(C)C)nc2c1CCNCC2)c1ccccn1 (centres undefined)	4.09%
c1cn(-c2ccc(CN3CCCC3)cc2)c(-c2cc3n(n2)CCNC3)n1	-6.8%
OC1(CNCCc2csc(-c3ccncc3)n2)CCCNC1 (centres undefined)	-5.37%
CN(Cc1cnccn1)C(=O)c1ccc(CSc2nnc[nH]2)o1	-20.7%
COCC(c1ccccn1)N(C)C(=O)c1cc(-c2cccn2C)n[nH]1 (centres undefined)	-10.6%
Cc1cc(CNCC2(O)CCCN(CCCc3ccccc3)C2=O)n[nH]1 (centres undefined)	-5.17%
c1cncc(CN(Cc2ccsc2)Cc2ccc(C3CCCCO3)o2)c1 (centres undefined)	6.4%
O=C(c1cc(COc2ccc3c(c2)OCO3)[nH]n1)N1CCSCC1	-0.532%
O=C(CN1CCOC1=O)N1CCC2(CCc3ccccc32)CC1	7.69%
Cc1cnc(C(=O)N2CC(=O)N(c3ccccc3Cl)CC2C)cn1 (centres undefined)	-6.52%
Cc1nc(C(C)C)sc1CNC(=O)CCCN1CCCCC1	30.6%
CN1CCc2[nH]nc(C(=O)N3CCC4(CN(C)C(=O)O4)C3)c2C1 (centres undefined)	-6.62%
O=C(CN1CC(c2ccccc2)CC1=O)N1CCC(c2ncc[nH]2)CC1 (centres undefined)	-4.48%
Cc1ncsc1CCC(=O)N1CCCC1c1cccnc1 (centres undefined)	-6.95%
Cc1cccc(C)c1OC1CN(Cc2cnc(N3CCOCC3)nc2)C1	-7%
CSc1ccc(C(=O)C2CCCN(C(=O)CCn3cnnn3)C2)cc1 (centres undefined)	14.5%

Structure (SMILES)	cytotoxicity at 70.5 h
O=C(c1cc(-c2ccco2)nc2c(Cl)cccc12)N1C[C@H]2CNC[C@H]2C1	-6.09%
c1ccc2sc(N3CCCC4(CCOC4)C3)nc2c1 (centres undefined)	-2.11%
Cc1cnn(CCC(=O)N2CCN(C(=O)C3CC3)[C@@H]3CS(=O)(=O)C[C@@H]32)c1	-5.71%
Cc1ccc(C(=O)N2CCC(C(F)(F)F)CC2)cc1N1CCNC1=O	4.91%
CCn1nc(C(=O)N2CCNCC2C(=O)Nc2ccc(C)nc2)cc1C (centres undefined)	3.8%
Fc1ccc(N2CCCN(c3ccc(Cn4ccnc4)cn3)CC2)cc1	2.18%
COC(=O)[C@@H]1C[C@H](NC(=O)c2cc(=O)[nH]c3ccc(C)cc23)CN1C	-13%
O=C(c1ccccn1)N1CCc2c(nc(-c3ccncc3)[nH]c2=O)C1	-6.64%
CN(CC(O)CO)C(=O)c1coc(COc2cccc(F)c2)n1 (centres undefined)	8.53%
CN1CCC(N2CCCC(C(=O)N3Cc4ccccc4C3)C2)CC1 (centres undefined)	-14.7%
CNc1ccc(C)cc1C(=O)N1CCCC2(CCNC2)C1 (centres undefined)	-8.09%
O=C1O[C@@H]2CN(Cc3cccnc3)C[C@@H]2N1CCCN1CCOCC1	-1.95%
COCC(=O)N1C[C@H]2CNC[C@@]2(C(=O)NCc2cc(C)n[nH]2)C1	-5.27%
COc1cc(-c2nc3c([nH]2)CCCNC3=O)ccc1O	5.51%
COc1nc2c(cc1C(=O)NCCCc1nnc(N)s1)CCC2	-1.23%
CN(CC1CCCCO1)c1nc2c(cc1C(N)=O)CCC2 (centres undefined)	-8.46%
O=C(O)[C@@H]1CN(C2CCCC2)C[C@H]1C1CC1	-8.02%
CN1CCN(Cc2noc(-c3cc(-c4ccccc4F)n[nH]3)n2)CC1	17.5%
Cc1c[nH]c(C(=O)N2CCC(c3nnc(CN(C)CCO)n3C)CC2)c1	4.25%
COc1ccc(F)c(-c2ncccc2NC(=O)C(C)C)c1	6.17%
CCc1cc(C(=O)NCC2CCN(Cc3ccncc3)CC2)on1	-9.67%
OC1(CN2CCCC2)CCCN(Cc2cnc(-c3ccccc3)nc2)C1 (centres undefined)	31.4%

Structure (SMILES)	cytotoxicity at 70.5 h
CN(Cc1cnn(C)c1)C1CCN(c2cccc(-c3cscn3)c2)CC1	-2.02%
Cc1nc(CCNC(=O)C(N)c2c(C)n[nH]c2C)sc1C (centres undefined)	-13.1%
O=C(Cc1cccnc1)NC1CCCN(CCCc2ccccc2)C1 (centres undefined)	-8.8%
CC(=O)NC1CCN(c2cc(C3CCNCC3)nc(C)n2)C1 (centres undefined)	-6.6%
CN(C)C(=O)NCC(=O)N1CCCC2(CCC(=O)N(CC3CC3)C2)C1 (centres undefined)	-13.6%
O=C(c1c[nH]c(=O)c(Cl)c1)N1C[C@@H]2CC[C@H](C1)N(CC1CCC1)C2	19.9%
O=C(CC1CCc2ccccc21)N1CCC(C(=O)O)(n2ccnc2)CC1 (centres undefined)	22.5%
N[C@H]1CN(C(=O)CCc2ccccn2)C[C@@H]1c1ccccc1	4.91%
COc1ccc(CN2CCN(c3nccnc3OC)CC2=O)cc1	-4.78%
CCn1c(CN2CCCC2)nnc1C1CCN(Cc2cc(C)no2)CC1	-6.8%
O=C1OCCN1Cc1nc(C2(c3ccc(F)cc3)CCOC2)no1 (centres undefined)	-6.4%
O=C1C[C@H]2CC[C@@H](CN1)N2C(=O)CCc1ccc2c(c1)OCO2	-12.8%
c1ccc(CCCn2cc(-c3nc(CN4CCOCC4)no3)nn2)cc1	-15%
COc1ccccc1OC1CCN(C(=O)CCCN2CCOCC2)CC1	-9.29%
O=C(O)c1cc(-c2ccoc2)cc(S(=O)(=O)NC2CC2)c1	-6.76%
Cc1ccc(CN2CCC3(CCCN(Cc4ccc(F)c(F)c4)C3)C2)o1 (centres undefined)	0.359%
CCN1CC(C(=O)N2CC(Oc3ccccc3Cl)C2)CCC1=O (centres undefined)	-1.72%
CCNC(=O)N1CCC(Cc2cccc(C(N)=O)c2)C1 (centres undefined)	-5.09%
CC(C)(CN1CCC(Cc2ccc(C(=O)O)cc2)C1)N1CCOCC1 (centres undefined)	-12.2%
COC(=O)c1ccccc1C(=O)N(CCN(C)C)Cc1sccc1C	-7.74%
Cc1cccc2c1nc(CCO)n2-c1ccc(N)nc1	-8.34%
Cc1nc(-c2cc(Cl)cc3c2OC(CN)C3)c[nH]1 (centres undefined)	11.1%

Structure (SMILES)	cytotoxicity at 70.5 h
Cc1cc(C)n(C2CN(C(=O)Cn3c(=O)c(C)nc4ccccc43)C2)n1	30%
Cc1cc(N2CCCC(N(C)C)C2)n2nccc2n1 (centres undefined)	9.89%
CCN1CCCC(C)(C(=O)NCCc2nnc(C)[nH]2)C1 (centres undefined)	-3.07%
CC(C1CCN(Cc2cnc(-c3cccs3)nc2)CC1)N(C)C (centres undefined)	28.9%
Cc1ccccc1SC1CCN(C(=O)[C@H]2[C@@H]3CNC[C@@H]32)CC1	-1.38%
Cn1cc(-c2c(C#N)c(N)nc3c2CCc2[nH]ccc2-3)cn1	17.1%
CCN(C)CC(C)Cn1cnc(-c2ccccc2)c1-c1cncn1CC (centres undefined)	-10.8%
O=C(Nc1cnc2n1CCCC2)c1cccc(NC(=O)C2CCCC2)c1	-8.35%
CN(C)C(=O)c1cccnc1-c1ccc2c(c1)OCO2	-11.3%
O=C1O[C@@H]2CN(c3ccc(Cl)cn3)C[C@@H]2N1CCc1ccc(F)cc1	-8.87%
Cc1ccccc1CN(Cc1ccc(S(C)(=O)=O)cc1)CC(C)C	6.09%
CCNc1ccnc(NCC2CNCCO2)n1 (centres undefined)	-3.23%
COCCn1ccnc1-c1[nH]cnc1C	6.67%
CC(C)(C)c1ncc(S(C)(=O)=O)c(C2CCCNC2)n1 (centres undefined)	-6.75%
CC(c1cccnc1)N(C)Cc1cc(O)c2cc(F)ccc2n1 (centres undefined)	-6.6%
COc1cccc2ccc(CN3CCN(c4ccncc4)CC3)nc12	-9.89%
CCCNc1ncc(-c2cc(C3CC3)nc(N)c2C#N)cn1	-12.1%
CC1=C(C(=O)N2CCCC(Cn3cc(CO)nn3)C2)OCCO1 (centres undefined)	-2.23%
NCCc1n[nH]c(=O)n1-c1cccc(Cl)c1Cl	-3.82%
O=C(CCSc1ccc2c(c1)OCCO2)NCC1CCS(=O)(=O)C1 (centres undefined)	-3.43%
Cc1cc(C(=O)N2CCCC3(CN(C)C(=O)O3)C2)c2ccc(F)cc2n1 (centres undefined)	16.1%
Cc1n[nH]c(CN2CCN(CC3CC3)[C@@H]3CS(=O)(=O)C[C@@H]32)n1	44.8%

Structure (SMILES)	cytotoxicity at 70.5 h
COC[C@@H]1CCCN1C(=O)c1cc(-c2ccc(OC)cc2)n[nH]1	-7.57%
COc1ccc(-c2noc(CN3CCN(c4cnccn4)CC3)n2)cc1	-16.7%
CCn1ccnc1CN1CCC(=O)N(CC2CC2)C(C(C)C)C1 (centres undefined)	31.2%
NC(=O)CN1CCCC(C(=O)N2CCC(Oc3ncccn3)CC2)C1 (centres undefined)	-2.67%
Cc1ccc(C(C(=O)NCCc2nc(C)cc(C)n2)N(C)C)cc1 (centres undefined)	-4.39%
CCC(Cn1ccc2[nH]c(=O)c(C#N)cc2c1=O)OC (centres undefined)	-6.98%
CCc1nnc(CN2CCc3[nH]c(-c4ccc(OC)cc4)nc3C2)o1	-9.04%
COCC1CCN(S(=O)(=O)c2ccc(C(=O)NCC(F)F)cc2)C1 (centres undefined)	9.26%
Cc1cc(N[C@H]2CCCC[C@@H]2O)n2nccc2n1	5.62%
O=C(c1cn(CCN2CCCCC2)nn1)N1CCCO1	-6.13%
CC(C)C1CN(c2cccc(C#N)n2)CCCN1Cc1ccc(F)cc1 (centres undefined)	-15.7%
Cc1cccc(C)c1NC(=O)c1cccc(CN2CCCC2C)c1 (centres undefined)	3.17%
COCCN(C)c1nc(-c2ccncc2)nc2c1CCN(C(C)=O)C2	-7.41%
c1cnc(N2CCN(CCn3ccnc3-c3ccncc3)CC2)nc1	12.5%
CO[C@H]1CNC[C@@H]1NC(=O)CCc1nc(-c2ccccc2)no1	-0.167%
CC/C=C(\C)CN1CCC(CNC(=O)c2ccnc(N)c2)C1 (centres undefined)	15%
CC(C)(C)c1cc(CN2C[C@H]3CC[C@@H]2CN(Cc2cscn2)C3)n[nH]1	13.7%
CC(C)NC(=O)[C@@H]1C[C@H](N)CN1C(=O)C1(c2ccc(Cl)cc2)CCC1	-9.78%
Cc1nc(C(=O)N2CCN(c3ncccn3)[C@@H]3CS(=O)(=O)C[C@@H]32)cs1	-7.79%
Cc1nnc(-c2cccc(N3CCC(NC(C)CC(C)C)CC3)c2)s1 (centres undefined)	-4.36%
COc1ccc(C(C(=O)O)N(C)CCN2CCCC2)c(C)c1 (centres undefined)	24%
